Assay results taken from patent publication US4379160A, “Carbazole compounds and medicinal use thereof” (priority 1978, dated 1983).
Counter-ions that a name gives are not always drawn. Like-named read-outs stand apart in the source and are kept apart here.

What was measured:
[1] = test system: Rat; settings: in vivo; for Muscle Tone Decrease ED min.: ip
[2] = test system: apomorphine-induced aggression; assay: antagonism of apomorphine-induced aggression (antiaggressive activity); settings: for ED50: Rattus norvegicus
[3] = as above; settings: rat, in vivo, po
[4] = test system: Mouse; assay: anticonvulsant activity, Maximal Electroshock Test (MES); type: in vivo; settings: for ED50: ip, Mouse, Maximal Electroshock Test
From the text: | ^(a) Maximal Electroshock Test (Woodbury and Davenport, Arch. Int. | Pharmacodyn. Ther., 92, 97-107 (1952).

[5] = acute oral lethality (LD50) in rat; settings: in vivo, p.o.
[6] = test system: Mouse; settings: in vivo; for Loss of Righting Reflex ED min.: ip
[7] = side-effects such as sedation, catalepsy and extrapyramidal dysfunction; type: in vivo; settings: in words
[8] = test system: anti-cholinergic activity; assay: anti-cholinergic activity; settings: in words
[9] = test system: apomorphine induced stereotyped behaviour; assay: apomorphine induced stereotyped behaviour; type: in vivo; settings: rat; in words
[10] = test system: muricidal behaviour; assay: inhibition of instinctive muricidal (mouse killing) behaviour; type: in vivo, rat; settings: rats
[11] = test system: locomotor activity of d-amphetamine; assay: potentiation of locomotor activity of d-amphetamine; type: in vivo; settings: in words
[12] = test system: anti-histamine activity; assay: anti-histamine activity; settings: in words
[13] = acute lethality (LD50) in male mice; settings: mouse, in vivo
[14] = po, read-out: Antiaggressive ED50

For CN1CCN(CCCn2c3ccccc3c3ccccc32)CC1 [compound B, 9-[3-(4-methylpiperazino)propyl]carbazole, reference compound], the “dose at which muscle tone decrease is observed relative to the "Carbazole"” value [1] was “much lower dose”, the “Muscle Tone Decrease ED min.” value [1] was 50 mg/kg and the ED50 [2, 14] was 75 mg/kg. For the same compound, the selectivity ratio [3] was 11, the “level of anticonvulsant activity” value ([4]; assessment in words) was “marginal” and the ED50 [4] was 20 mg/kg. For the same compound, the LD50 [5] was 830 mg/kg and the “Loss of Righting Reflex ED min.” value [6] was 50 mg/kg.

For C[C@@H]1CN(CCCn2c3ccccc3c3ccccc32)C[C@H](C)N1 [Carbazole, 9-[3-(3,5-cis-dimethylpiperazino)propyl]carbazole], the “undesirable side-effects such as sedation, catalepsy and extrapyramidal dysfunction” value [7] was “substantially free from undesirable side-effects”, the “anti-cholinergic activity relative to phenothiazines” value [8] was “significantly less” and the “potency of anti-aggressive and anti-psychotic properties relative to non-methylated, 4-methyl, 3,4,5-trimethyl and 3,5-trans-dimethyl compounds” value ([2]; comparison in words) was “more potent than either the corresponding non-methylated compound or any of the analogous 4-methyl, 3,4,5-trimethyl or 3,5-trans-dimethyl compounds”. For the same compound, the “antagonism of apomorphine-induced aggression” value ([2]; rat, in words) was “antagonised apomorphine-induced aggression”, the “anticonvulsant activity of the "Carbazole" relative to cpd. B” value ([4]; in words) was “less than half the anticonvulsant activity of cpd. B” and the “antagonism of apomorphine induced stereotyped behaviour” value [9] was “failure to antagonise apomorphine induced stereotyped behaviour”. For the same compound, the “suppression of instinctive muricidal (mouse killing) behaviour” value ([10]; in words) was “suppress the instinctive muricidal (i.e. mouse killing) behaviour”, the “potentiation of the locomotor activity of d-amphetamine” value [11] was “potentiates the locomotor activity of d-amphetamine” and the “anti-histamine activity relative to phenothiazines” value [12] was “significantly less”. The “minimum dose for loss of righting reflex relative to compound B” value [6] was “about three times that of compound B”.

With O=C1NC(=O)C(c2ccccc2)(c2ccccc2)N1 [Phenytoin] the ED50 [4] was 8.5 mg/kg, the “anticonvulsant activity relative to the "Carbazole" (cpd. A)” value ([4]; phenytoin vs cpd. A) was 5 times and the “anticonvulsant activity relative to cpd. B” value ([4]; phenytoin vs cpd. B) was ~2.5 times. The “Loss of Righting Reflex ED min.” value [6] was > 100 mg/kg.

For C[C@@H]1CN(CCCn2c3ccccc3c3ccccc32)C[C@H](C)N1 [Example 1, 9-[3-(3,5-cis-Dimethylpiperazino)propyl]carbazole dihydrochloride hemihydrate], the “Muscle Tone Decrease ED min.” value [1] was 125 mg/kg, the ED50 ([2]; ip, read-out: ED50 (anti-aggressive)) was 12.5 mg/kg and the ED50 [2, 14] was 48 mg/kg. The selectivity ratio [3] was 20, the ED50 [4] was 43 mg/kg and the ED50 ([10]; Rattus norvegicus, ip, intraperitoneal, read-out: ED50 (anti-muricidal)) was 15 mg/kg. The LD50 [5] was 957 mg/kg, the LD50 ([13]; intravenous, read-out: LD50 intravenous) was 31 mg/kg and the LD50 ([13]; oral, read-out: LD50 oral) was 977 mg/kg. The “Loss of Righting Reflex ED min.” value [6] was 160 mg/kg.
